Patent US20260015358A1, “BICYCLIC DERIVATIVES, COMPOSITIONS AND USES THEREOF” (Danatlas Pharmaceuticals Co., Ltd., priority 2023, published 2026)

Columns and labels:
[1] = target: T1, WRN [UniPro: Q14191 (WRN_HUMAN), N500-C946] (Homo sapiens (Human), UniProt Q14191); test: WRN ATPase assay (ADP-Glo); type: biochemical; conditions: WRN enzymatic activity assay
[2] = target: T1, WRN [UniPro: Q14191 (WRN_HUMAN), N500-C946]; test: WRN unwinding assay (FORKF DNA, fluorescence); type: biochemical; conditions: Table 14

T1 sequence (Q14191 500-946): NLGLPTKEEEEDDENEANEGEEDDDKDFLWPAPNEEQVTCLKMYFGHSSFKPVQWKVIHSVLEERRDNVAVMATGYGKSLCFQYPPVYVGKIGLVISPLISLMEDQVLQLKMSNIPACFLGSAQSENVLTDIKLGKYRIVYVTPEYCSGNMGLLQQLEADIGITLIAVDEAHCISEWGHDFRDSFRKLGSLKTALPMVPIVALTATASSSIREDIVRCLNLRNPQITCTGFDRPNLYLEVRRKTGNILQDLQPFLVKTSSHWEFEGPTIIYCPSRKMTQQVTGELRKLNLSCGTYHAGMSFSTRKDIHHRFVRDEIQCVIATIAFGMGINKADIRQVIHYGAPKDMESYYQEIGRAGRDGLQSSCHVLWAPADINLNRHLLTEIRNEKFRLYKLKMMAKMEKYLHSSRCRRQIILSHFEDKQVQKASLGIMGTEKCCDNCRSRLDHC

IC50 [1] [nM]	IC50 [2] [nM]	Structure (SMILES)
100 to 1000	100 to 1000	CCc1c(N2CCN(C(=O)C(=O)Nc3ccncn3)CC2)c(=O)n2nc(C3=CCOCC3)nc2n1CC(=O)Nc1ccc(C(F)(F)F)cc1F [Example 340, 2-(4-(2-(3,6-Dihydro-2H-pyran-4-yl)-5-ethyl-4-(2-((2-fluoro-4-(trifluoromethyl)phenyl)amino)-2-oxoethyl)-7-oxo-4,7-dihydro-[1,2,4]triazolo[1,5-a]pyrimidin-6-yl)piperazin-1-yl)-2-oxo-N-(pyrimidin-4-yl)acetamide]
< 100	< 100	CCc1c(N2CCN(C(=O)CNC(=O)c3ccc(F)cc3F)CC2)c(=O)n2nc(C3=CCOCC3)nc2n1CC(=O)Nc1ccc(C(F)(F)F)cc1Cl [Example 117, N-(2-(4-(4-(2-((2-Chloro-4-(trifluoromethyl)phenyl)amino)-2-oxoethyl)-2-(3,6-dihydro-2H-pyran-4-yl)-5-ethyl-7-oxo-4,7-dihydro-[1,2,4]triazolo[1,5-a]pyrimidin-6-yl)piperazin-1-yl)-2-oxoethyl)-2,4-difluorobenzamide]
< 100	< 100	CCc1c(N2CCN(C(=O)CNC(=O)c3ccccc3)CC2)c(=O)n2nc(C3=CCOCC3)nc2n1CC(=O)Nc1ccc(C(F)(F)F)cc1Cl [Example 93, N-(2-(4-(4-(2-((2-Chloro-4-(trifluoromethyl)phenyl)amino)-2-oxoethyl)-2-(3,6-dihydro-2H-pyran-4-yl)-5-ethyl-7-oxo-4,7-dihydro-[1,2,4]triazolo[1,5-a]pyrimidin-6-yl)piperazin-1-yl)-2-oxoethyl)benzamide]
< 100	< 100	CCc1c(N2CCN(C(=O)c3cnn4ccnc4c3O)CC2)c(=O)n2nc(C3=CCOCC3)nc2n1CC(=O)Nc1ccc(C(F)(F)F)cc1Cl [Example 206, N-(2-Chloro-4-(trifluoromethyl)phenyl)-2-(2-(3,6-dihydro-2H-pyran-4-yl)-5-ethyl-6-(4-(8-hydroxyimidazo[1,2-b]pyridazine-7-carbonyl)piperazin-1-yl)-7-oxo-[1,2,4]triazolo[1,5-a]pyrimidin-4(7H)-yl)acetamide]
< 100	< 100	CCc1c(N2CCN(C(=O)CNC(=O)c3ccccc3)CC2)c(=O)n2nc(N3CC4COCC4C3)nc2n1CC(=O)Nc1ccc(C(F)(F)F)cc1Cl (centres unmarked) [Example 233, N-(2-(4-(4-(2-((2-Chloro-4-(trifluoromethyl)phenyl)amino)-2-oxoethyl)-5-ethyl-7-oxo-2-(tetrahydro-1H-furo[3,4-c]pyrrol-5 (3H)-yl)-4,7-dihydro-[1,2,4]triazolo[1,5-a]pyrimidin-6-yl)piperazin-1-yl)-2-oxoethyl)benzamide]
100 to 1000	< 100	CCc1c(N2CCN(C(=O)CNC(=O)CC3COC3)CC2)c(=O)n2nc(C3=CCOCC3)nc2n1CC(=O)Nc1ccc(C(F)(F)F)cc1Cl [Example 273, N-(2-Chloro-4-(trifluoromethyl)phenyl)-2-(2-(3,6-dihydro-2H-pyran-4-yl)-5-ethyl-6-(4-((2-(oxetan-3-yl)acetyl)glycyl)piperazin-1-yl)-7-oxo-[1,2,4]triazolo[1,5-a]pyrimidin-4(7H)-yl)acetamide]
< 100	< 100	CCc1c(N2CCN(C(=O)CNC(C)=O)CC2)c(=O)n2nc(C3=CCOCC3)nc2n1CC(=O)Nc1ccc(C(F)(F)F)cc1Cl [Example 168, 2-(6-(4-(Acetylglycyl)piperazin-1-yl)-2-(3,6-dihydro-2H-pyran-4-yl)-5-ethyl-7-oxo-[1,2,4]triazolo[1,5-a]pyrimidin-4(7H)-yl)-N-(2-chloro-4-(trifluoromethyl)phenyl)acetamide]
< 100	< 100	CCc1c(N2CCN(C(=O)C(=O)Nc3nnc(Cl)s3)CC2)c(=O)n2nc(C3=CCOCC3)nc2n1CC(=O)Nc1ccc(C(F)(F)F)cc1Cl [Example 351, N-(5-Chloro-1,3,4-thiadiazol-2-yl)-2-(4-(4-(2-((2-chloro-4-(trifluoromethyl)phenyl)amino)-2-oxoethyl)-2-(3,6-dihydro-2H-pyran-4-yl)-5-ethyl-7-oxo-4,7-dihydro-[1,2,4]triazolo[1,5-a]pyrimidin-6-yl)piperazin-1-yl)-2-oxoacetamide]
100 to 1000	< 100	CCc1c(N2CCN(C(=O)C(=O)Nc3ccccn3)CC2)c(=O)n2nc(C3=CCOCC3)nc2n1CC(=O)Nc1ccc(C(F)(F)F)cc1F [Example 229, 2-(4-(2-(3,6-Dihydro-2H-pyran-4-yl)-5-ethyl-4-(2-((2-fluoro-4-(trifluoromethyl)phenyl)amino)-2-oxoethyl)-7-oxo-4,7-dihydro-[1,2,4]triazolo[1,5-a]pyrimidin-6-yl)piperazin-1-yl)-2-oxo-N-(pyridin-2-yl)acetamide]
> 1000	> 1000	CCc1c(N2CCN(c3noc4cccnc34)CC2)c(=O)n2nc(C3=CCOCC3)nc2n1CC(=O)Nc1ccc(C(F)(F)F)cc1Cl [Example 23, N-(2-Chloro-4-(trifluoromethyl)phenyl)-2-(2-(3,6-dihydro-2H-pyran-4-yl)-5-ethyl-6-(4-(isoxazolo[4,5-b]pyridin-3-yl)piperazin-1-yl)-7-oxo-[1,2,4]triazolo[1,5-a]pyrimidin-4 (7H)-yl)acetamide]
< 100	< 100	CCc1c(N2CCN(C(=O)c3cnc4ccsc4c3O)CC2)c(=O)n2nc(C3=CCOCC3)nc2n1CC(=O)Nc1ccc(C(F)(F)F)cc1Cl [Example 45, N-(2-Chloro-4-(trifluoromethyl)phenyl)-2-(2-(3,6-dihydro-2H-pyran-4-yl)-5-ethyl-6-(4-(7-hydroxythieno[3,2-b]pyridine-6-carbonyl)piperazin-1-yl)-7-oxo-[1,2,4]triazolo[1,5-a]pyrimidin-4(7H)-yl)acetamide]
< 100	< 100	CCc1c(N2CCN(C(=O)CNC(=O)c3cc(O)cc(F)c3)CC2)c(=O)n2nc(C3=CCOCC3)nc2n1CC(=O)Nc1ccc(C(F)(F)F)cc1Cl [Example 291, N-(2-(4-(4-(2-((2-Chloro-4-(trifluoromethyl)phenyl)amino)-2-oxoethyl)-2-(3,6-dihydro-2H-pyran-4-yl)-5-ethyl-7-oxo-4,7-dihydro-[1,2,4]triazolo[1,5-a]pyrimidin-6-yl)piperazin-1-yl)-2-oxoethyl)-3-fluoro-5-hydroxybenzamide]
< 100	< 100	CCc1c(N2CCN(C(=O)c3cnc4scnc4c3O)CC2)c(=O)n2nc(C3=CCOCC3)nc2n1CC(=O)Nc1ccc(C(F)(F)F)cc1Cl [Example 49, N-(2-Chloro-4-(trifluoromethyl)phenyl)-2-(2-(3,6-dihydro-2H-pyran-4-yl)-5-ethyl-6-(4-(7-hydroxythiazolo[5,4-b]pyridine-6-carbonyl)piperazin-1-yl)-7-oxo-[1,2,4]triazolo[1,5-a]pyrimidin-4(7H)-yl)acetamide]
< 100	< 100	CCc1c(N2CCN(C(=O)CNC(=O)c3ccn[nH]3)CC2)c(=O)n2nc(C3=CCOCC3)nc2n1CC(=O)Nc1ccc(C(F)(F)F)cc1Cl [Example 101, N-(2-(4-(4-(2-((2-Chloro-4(trifluoromethyl)phenyl)amino)-2-oxoethyl)-2-(3,6-dihydro-2H-pyran-4-yl)-5-ethyl-7-oxo-4,7-dihydro-[1,2,4]triazolo[1,5-a]pyrimidin-6-yl)piperazin-1-yl)-2-oxoethyl)-1H-pyrazole-5-carboxamide]
< 100	< 100	CCc1c(N2CCN(C(=O)CNC(=O)c3cscn3)CC2)c(=O)n2nc(C3=CCOCC3)nc2n1CC(=O)Nc1ccc(C(F)(F)F)cc1Cl [Example 129, N-(2-(4-(4-(2-((2-Chloro-4-(trifluoromethyl)phenyl)amino)-2-oxoethyl)-2-(3,6-dihydro-2H-pyran-4-yl)-5-ethyl-7-oxo-4,7-dihydro-[1,2,4]triazolo[1,5-a]pyrimidin-6-yl)piperazin-1-yl)-2-oxoethyl)thiazole-4-carboxamide]
< 100	< 100	CCc1c(N2CCN(C(=O)CNC(=O)c3cc(F)cc(F)c3)CC2)c(=O)n2nc(C3=CCOCC3)nc2n1CC(=O)Nc1ccc(C(F)(F)F)cc1Cl [Example 115, N-(2-(4-(4-(2-((2-Chloro-4-(trifluoromethyl)phenyl)amino)-2-oxoethyl)-2-(3,6-dihydro-2H-pyran-4-yl)-5-ethyl-7-oxo-4,7-dihydro-[1,2,4]triazolo[1,5-a]pyrimidin-6-yl)piperazin-1-yl)-2-oxoethyl)-3,5-difluorobenzamide]
< 100	< 100	CCNC(=O)NCC(=O)N1CCN(c2c(CC)n(CC(=O)Nc3ccc(C(F)(F)F)cc3Cl)c3nc(C4=CCOCC4)nn3c2=O)CC1 [Example 41, N-(2-Chloro-4-(trifluoromethyl)phenyl)-2-(2-(3,6-dihydro-2H-pyran-4-yl)-5-ethyl-6-(4-((ethylcarbamoyl)glycyl)piperazin-1-yl)-7-oxo-[1,2,4]triazolo[1,5-a]pyrimidin-4(7H)-yl)acetamide]
< 100	< 100	CCc1c(N2CCN(C(=O)c3ncc4ccn(C)c4c3O)CC2)c(=O)n2nc(C3=CCOCC3)nc2n1CC(=O)Nc1ccc(C(F)(F)F)cc1Cl [Example 203, N-(2-Chloro-4-(trifluoromethyl)phenyl)-2-(2-(3,6-dihydro-2H-pyran-4-yl)-5-ethyl-6-(4-(7-hydroxy-1-methyl-1H-pyrrolo[3,2-c]pyridine-6-carbonyl)piperazin-1-yl)-7-oxo-[1,2,4]triazolo[1,5-a]pyrimidin-4(7H)-yl)acetamide]
100 to 1000	< 100	CCc1c(N2CCN(C(=O)c3ncc(F)cc3N)CC2)c(=O)n2nc(C3=CCOCC3)nc2n1CC(=O)Nc1ccc(C(F)(F)F)cc1Cl [Example 46, 2-(6-(4-(3-Amino-5-fluoropicolinoyl)piperazin-1-yl)-2-(3,6-dihydro-2H-pyran-4-yl)-5-ethyl-7-oxo-[1,2,4]triazolo[1,5-a]pyrimidin-4(7H)-yl)-N-(2-chloro-4-(trifluoromethyl)phenyl)acetamide]
